Experimental data from patent US10662210B2, “Compositions and methods comprising osmium for the treatment of cancers” (Massachusetts Institute of Technology, priority 2014, dated 2020).

Tested on: ER of A2780 cells
Test: Fluorescence microscopy of ER size (ER tracker Blue)
Type: cell-based, human
Settings: 10 μM
Experimental: This finding led to the investigation of the possibility that 4 may induce endoplasmic reticulum (ER) stress. Co-administration of 4 and salubrinal (10 μM), a known ER stress inhibitor, reduced the cytotoxicity of 4 in A2780 cells. […] To further validate the ER as the main target for 4, the expression of proteins related to the unfolded protein response (UPR) was monitored. […] ER membrane expansion is widely associated with ER stress. With this fact in mind the ER size of A2780 cells upon incubation with 4 were examined using fluorescence microscopy. Relative to untreated controls (FIG. 3B), cells exposed to 4 (10 μM) for 4 h had 25.1% larger ER coverage (FIG. 3C). […]
A2780 cells (1×10^4) were incubated with and without 4 (10 μM) for 6 h. […] Fluorescence imaging experiments were performed using a Zeiss Axiovert 200M inverted epifluorscence microscope with a Hamamatsu EM-CCD digital camera C9100 and a MS200 XY Piezo Z stage (Applied Scientific Instruments, Inc.). […] The exposure time for acquisition of fluorescence images was kept constant for each series of images at each channel. The ER and whole cell size was quantified using ImageJ (version 1.45, NIH). The size of the whole cell was measured by tracing the outline of the cell membrane in the DIC view. The size of the ER was measured by tracing the outline of emission observed from ER tracker Blue in the DAPI (blue) channel. […]

`[N]#[Os]1([Cl])([Cl])([Cl])[N]2C=CC(c3ccccc3)=c3ccc4c(c32)[N]1C=CC=4c1ccccc1` [Complex 4, OsN(4,7-diphenyl-1,10-phenanthroline)Cl3] was tested, and the “larger ER coverage relative to untreated controls” value (4 h) was 25.1% and the “ER size relative to the whole cell” value (treated samples) was “about 55%”.
